In patent publication US4169950A, “Amino-hydroxy-alkyl sulfonic acid zwitterions” (priority 1977, dated 1979):

How the values were obtained:
[1] = tested on: NIL B, SV-NIL and BALB/C 3T3 cells; experiment: Effectiveness as cell and tissue culture buffers, overall comparison on the cell lines tested; settings: for effectiveness as buffer in promotion of cell growth, compared with HEPES / effectiveness as buffer in promotion of cell growth, compared with NaHCO3:CO2 system (control): selected media, cells tested
Description: The cell lines used in the tests were NIL B, a hamster fibroblast line; SV-NIL, an SV40-virus transformed line derived from NIL B; and BALB/C 3T3, a mouse embryo tissue. The cells were seeded into T-flasks (screw-capped polystyrene flasks) with a 25 cm^2 area. On the control flask (CO2 atmosphere), the cap was kept loose to allow gas circulation while the caps on the experimental culture flasks were screwed on tightly. The medium used in these tests was Eagle's MEM 4X (see pages 108-112 of Paul, Cell and Tissue Culture, 5th Edition, 1975), in an Earle's salt solution (page 95 of same text) modified to contain 2.2 g/l of bicarbonate for the experimental buffers. The control was not so modified. The control flask was incubated at 37° C. in an atmosphere of 5% CO2 in air whereas the other flasks were incubated at 37° C. in an air atmosphere. The medium was changed every other day.
At appointed times, triplicate flasks were harvested using trypsin, and the approximate cell population was determined using a Coulter electronic particle counter.

[2] = pKa (pH of midpoint of buffering range) of the product at 20° C.
Description: (§2) In this application, pKa is used to represent the pH of the midpoint of the buffering range of the particular composition.

[3] = Solubility of double zwitterion on acidification; format: physicochemical; settings: aqueous reaction solution acidified to pH 1.5 with HCl
NIL B cells = experiment: Effect of buffers on growth of NIL B cells; format: cell-based, hamster; settings: for Minimum Cell Population: Control at 16 hrs, HEPES at 24 hrs, Ex 3 at 24 hrs
Description: (§1) The control was not so modified. […] The medium was changed every other day.

SV-NIL cells = experiment: Effect of buffers on growth of SV-NIL cells; format: cell-based, hamster; settings: for Minimum Cell Population: Control at 16 hrs, HEPES at 24 hrs, Ex 3 at 26 hrs
Description: as §1

BALB/C 3T3 = experiment: Effect of buffers on growth of 3T3 cells; format: cell-based, mouse; settings: for Minimum Cell Population: Control at 70 hrs, HEPES at 50 hrs, Ex 3 at 22 hrs
Description: as §1

Description for physchem: as §2

| pKa [2] | SMILES | effectiveness as buffer in promotion of cell growth, compared with HEPES [1] | effectiveness as buffer in promotion of cell growth, compared with NaHCO3:CO2 system (control) [1] | Time of minimum cell population (NIL B cells) [h] | Number of Cells per cm^2 (NIL B cells; 0 hrs) [cells per cm^2] | Number of Cells per cm^2 (NIL B cells; 90-92 hrs) [cells per cm^2] | Number of Cells per cm^2 (NIL B cells; 12 hrs) [cells per cm^2] | Number of Cells per cm^2 (NIL B cells; 24 hrs) [cells per cm^2] | Number of Cells per cm^2 (NIL B cells; 36 hrs) [cells per cm^2] | Number of Cells per cm^2 (NIL B cells; 48 hrs) [cells per cm^2] | Number of Cells per cm^2 (NIL B cells; 60 hrs) [cells per cm^2] | Number of Cells per cm^2 (NIL B cells; 72 hrs) [cells per cm^2] | Number of Cells per cm^2 (NIL B cells; 84 hrs) [cells per cm^2] | Minimum Cell Population (NIL B cells) | Time of minimum cell population (SV-NIL cells) [h] | Number of Cells per cm^2 (SV-NIL cells; 0 hrs) [cells per cm^2] | Number of Cells per cm^2 (SV-NIL cells; 12 hrs) [cells per cm^2] | Number of Cells per cm^2 (SV-NIL cells; 24 hrs) [cells per cm^2] | Number of Cells per cm^2 (SV-NIL cells; 36 hrs) [cells per cm^2] | Number of Cells per cm^2 (SV-NIL cells; 48 hrs) [cells per cm^2] | also measured |
| --- | --- | --- | --- | --- | --- | --- | --- | --- | --- | --- | --- | --- | --- | --- | --- | --- | --- | --- | --- | --- | --- |
| – | O=S(=O)(O)CC(O)CNC(CO)(CO)CO (stereo not drawn) [Example 2, 3-[N-(tris-hydroxymethyl)methylamino]-2-hydroxypropane sulfonic acid] | – | – | – | – | – | – | – | – | – | – | – | – | – | – | – | – | – | – | – | pKa (physchem): 7.7 |
| – | O=S(=O)(O)CC(O)CN1CCOCC1 (stereo not drawn) [Example 6, 3-(N-morpholino)-2-hydroxypropyl sulfonic acid] | about as good as HEPES | not as good as the NaHCO3 :CO2 system | – | – | – | – | – | – | – | – | – | – | – | – | – | – | – | – | – | – |
| 7.6 | O=S(=O)(O)CC(O)CN(CCO)CCO (stereo not drawn) [Example 1, 3-[N-(bis-hydroxyethyl)-amino]-2-hydroxypropyl sulfonic acid] | – | – | – | – | – | – | – | – | – | – | – | – | – | – | – | – | – | – | – | – |
| 7.85 | O=S(=O)(O)CC(O)CN1CCN(CC(O)CS(=O)(=O)O)CC1 (stereo not drawn) [Example 4, Piperazine-N,N'-2-hydroxypropyl sulfonic acid (dihydrate)] | – | – | – | – | – | – | – | – | – | – | – | – | – | – | – | – | – | – | – | solubility [3]: very insoluble |
| – | O=S(=O)(O)CCN1CCN(CCO)CC1 [HEPES, 4-(2-hydroxyethyl)-1-piperazine-ethanesulfonic acids, reference compound] | – | – | 24 | 1000 | 6700 | 680 | 460 | 700 | 1010 | 1160 | 3000 | 4800 | about 460 cells per cm^2 | 24 | 1000 | 440 | 200 | 230 | 260 | Number of Cells per cm^2 (SV-NIL cells; 60 hrs): 380 cells per cm^2; Number of Cells per cm^2 (SV-NIL cells; 72 hrs): 580 cells per cm^2; Number of Cells per cm^2 (SV-NIL cells; 84 hrs): 940 cells per cm^2; Number of Cells per cm^2 (SV-NIL cells; 90 hrs): 1040 cells per cm^2; Minimum Cell Population (SV-NIL cells): about 200 cells per cm^2; Time of minimum cell population (BALB/C 3T3): 50 h; Number of Cells per cm^2 (BALB/C 3T3; 0 hrs): 1000 cells per cm^2; Number of Cells per cm^2 (BALB/C 3T3; 12 hrs): 640 cells per cm^2; Number of Cells per cm^2 (BALB/C 3T3; 24 hrs): 400 cells per cm^2; Number of Cells per cm^2 (BALB/C 3T3; 36 hrs): 300 cells per cm^2; Number of Cells per cm^2 (BALB/C 3T3; 48 hrs): 230 cells per cm^2; Number of Cells per cm^2 (BALB/C 3T3; 60 hrs): 280 cells per cm^2; Number of Cells per cm^2 (BALB/C 3T3; 72 hrs): 380 cells per cm^2; Number of Cells per cm^2 (BALB/C 3T3; 84 hrs): 760 cells per cm^2; Number of Cells per cm^2 (BALB/C 3T3; 88 hrs): 1010 cells per cm^2; Minimum Cell Population (BALB/C 3T3): about 220 cells per cm^2 |
| – | O=S(=O)(O)CC(O)CN1CCN(CCO)CC1 (stereo not drawn) [Example 3, N-hydroxyethyl piperazine-N'-2 hydroxypropyl sulfonic acid] | as good as, if not better than, the control and the known buffer HEPES | as good as, if not better than, the control | 24 | 1000 | 9400 | 740 | 550 | 900 | 1100 | 2600 | 4300 | 6600 | about 550 cells per cm^2 | 26 | 1000 | 470 | 220 | 290 | 440 | Number of Cells per cm^2 (SV-NIL cells; 60 hrs): 680 cells per cm^2; Number of Cells per cm^2 (SV-NIL cells; 72 hrs): 1000 cells per cm^2; Number of Cells per cm^2 (SV-NIL cells; 84 hrs): 1120 cells per cm^2; Number of Cells per cm^2 (SV-NIL cells; 90 hrs): 1200 cells per cm^2; Minimum Cell Population (SV-NIL cells): about 200 cells per cm^2; cell growth utilizing the product as a buffer ([1]; three cell types, average values): general improvement in cell growth; Time of minimum cell population (BALB/C 3T3): 22 h; Number of Cells per cm^2 (BALB/C 3T3; 0 hrs): 1000 cells per cm^2; Number of Cells per cm^2 (BALB/C 3T3; 12 hrs): 520 cells per cm^2; Number of Cells per cm^2 (BALB/C 3T3; 24 hrs): 280 cells per cm^2; Number of Cells per cm^2 (BALB/C 3T3; 36 hrs): 310 cells per cm^2; Number of Cells per cm^2 (BALB/C 3T3; 48 hrs): 330 cells per cm^2; Number of Cells per cm^2 (BALB/C 3T3; 60 hrs): 360 cells per cm^2; Number of Cells per cm^2 (BALB/C 3T3; 72 hrs): 450 cells per cm^2; Number of Cells per cm^2 (BALB/C 3T3; 84 hrs): 805 cells per cm^2; Number of Cells per cm^2 (BALB/C 3T3; 88 hrs): 1015 cells per cm^2; Minimum Cell Population (BALB/C 3T3): about 280 cells per cm^2 |
